20 molecules from patent US8017612B2, “Piperazine compound and use thereof as a HCV polymerase inhibitor” (priority 2006, dated 2011) can be followed below.

Structures are written as SMILES. pIC50: −log10 of the molar value. Bounds are passed on as bounds.

The target in assay [1] is T1, HCV polymerase (NS5B) type 1b (Hepatitis C virus genotype 1b, UniProt P26663).
T1 construct: a region encoding NS5B (J Virol 1991 March, 65(3), 1105-13, 544 amino acids after deletion of 47 amino acids on the C-terminal); 6xHis (C); made in house; host or cells: Escherichia coli
In words: Assay of enzyme (HCV polymerase) inhibitory activity, type 1b enzyme. In kind it is biochemical, HCV BK strain (type 1b). To be noted: HCV polymerase inhibitory activity IC50, 1b, type 1b enzyme. Summed up: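 NS5B from HCV BK strain (type 1b), C-terminal 47 aa deleted, C-terminal His6-tagged, E. coli-expressed, 0.5 μg/ml, with ~450 nt substrate RNA carrying the 3′ UTR (polyU, 3′X) at 5 μg/ml. Incubation 60 min at 25 °C with 50 μM ATP/GTP/CTP, 2 μM UTP plus [3H]UTP, pH 7.5 Tris.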

The target of assay [2] is T2, HCV polymerase (NS5B) type 1a (Hepatitis C virus genotype 1a, UniProt P26664).
T2 construct: made in house; host or cells: Escherichia coli (by the 'similar method' of the 1b enzyme)
In words: Assay of enzyme (HCV polymerase) inhibitory activity, type 1a enzyme. In kind it is biochemical, HCV type 1a (cloned from the blood of patients). The conditions noted are these: HCV polymerase inhibitory activity IC50, 1a, type 1a enzyme. Summed up:
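Patient-derived type 1a NS5B (C-terminal 47-aa deletion, His-tagged, E. coli-expressed) at 1.5 μg/ml was reacted with 5 μg/ml 3′UTR-containing substrate RNA, 50 μM ATP/GTP/CTP, 2 μM UTP plus [3H]UTP, pH 7.5, 25° C for 60 min. TCA-precipitated RNA radioactivity was counted; IC50 from ± compound.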

As a reminder, the pIC50 is −log10 of the IC50, conventionally taken in molar units. Higher therefore signals a low IC50.

Consider `O=C(NCc1ccc(S(F)(F)(F)(F)F)cc1)[C@H]1CN(c2nc3ncncc3s2)CCN1S(=O)(=O)c1ccc(OC(F)(F)F)cc1` [Example 996, (R)-4-thiazolo[4,5-d]pyrimidin-2-yl-1-(4-trifluoromethoxy-benzenesulfonyl)-piperazine-2-carboxylic acid 4-pentafluorosulfanyl-benzylamide], for which the pIC50 in assay [1] and in assay [2] was above 7.00 in each case.

For the molecule `O=C(NCc1ccc(OC(F)F)cc1F)[C@H]1CN(c2nc3nc(Cl)ncc3s2)CCN1S(=O)(=O)c1ccc(OC(F)(F)F)cc1` [Example 997, (R)-4-(5-chloro-thiazolo[4,5-d]pyrimidin-2-yl)-1-(4-trifluoromethoxy-benzenesulfonyl)-piperazine-2-carboxylic acid 4-difluoromethoxy-2-fluoro-benzylamide], the pIC50 in assay [1] and in assay [2] was above 7.00 in each case.

`O=C(NCc1ccc(OC(F)F)cc1F)[C@H]1CN(c2nc3ncncc3s2)CCN1S(=O)(=O)c1ccc(OC(F)(F)F)cc1` [Example 998, (R)-4-thiazolo[4,5-d]pyrimidin-2-yl-1-(4-trifluoromethoxy-benzenesulfonyl)-piperazine-2-carboxylic acid 4-difluoromethoxy-2-fluoro-benzylamide]: the pIC50 in assay [1] and in assay [2] was above 7.00 each time.

Take `O=C(NCc1ccc(OC(F)(F)F)cc1)[C@H]1CN(c2nc3nc(C(F)(F)F)ncc3s2)CCN1S(=O)(=O)c1ccc(OC(F)F)cc1` [Example 999, (R)-1-(4-difluoromethoxy-benzenesulfonyl)-4-(5-trifluoromethyl-thiazolo[4,5-d]pyrimidin-2-yl)-piperazine-2-carboxylic acid 4-trifluoromethoxy-benzylamide]: the pIC50 in assay [1] and in assay [2] was above 7.00 each time.

For `O=C(NCc1ccc(OC(F)F)cc1)[C@H]1CN(c2nc3nc(C(F)(F)F)ncc3s2)CCN1S(=O)(=O)c1ccc(OC(F)(F)F)cc1` [Example 1000, (R)-1-(4-trifluoromethoxy-benzenesulfonyl)-4-(5-trifluoromethyl-thiazolo[4,5-d]pyrimidin-2-yl)-piperazine-2-carboxylic acid 4-difluoromethoxy-benzylamide], the pIC50 in assay [1] and in assay [2] was above 7.00 in each case.

For the molecule `O=C(NCc1ccc(OC(F)F)cc1)[C@H]1CN(c2nc3nc(C(F)(F)F)ncc3s2)CCN1S(=O)(=O)c1ccc(C(F)(F)F)cc1` [Example 1001, (R)-1-(4-trifluoromethyl-benzenesulfonyl)-4-(5-trifluoromethyl-thiazolo[4,5-d]pyrimidin-2-yl)-piperazine-2-carboxylic acid 4-difluoromethoxy-benzylamide], the pIC50 in assay [1] and in assay [2] was above 7.00 in each case.

For the molecule `O=C(NCc1ccc(OC(F)(F)F)cc1)[C@H]1CN(c2nc3nnnc(NCCO)c3s2)CCN1S(=O)(=O)c1ccc(OC(F)(F)F)cc1` [Example 1002, (R)-4-[4-(2-hydroxy-ethylamino)-thiazolo[4,5-d][1,2,3]triazin-6-yl]-1-(4-trifluoromethoxy-benzenesulfonyl)-piperazine-2-carboxylic acid 4-trifluoromethoxy-benzylamide], the pIC50 in assay [1] and in assay [2] was above 7.00 each time.

As for `O=C(NCc1ccc(OC(F)(F)F)cc1)[C@H]1CN(c2nc3nc(C(F)(F)F)[nH]c(=O)c3s2)CCN1S(=O)(=O)c1ccc(OC(F)(F)F)cc1` [Example 1003, (R)-4-(7-oxo-5-trifluoromethyl-6,7-dihydro-thiazolo[4,5-d]pyrimidin-2-yl)-1-(4-trifluoromethoxy-benzenesulfonyl)-piperazine-2-carboxylic acid 4-trifluoromethoxy-benzylamide], the pIC50 in assay [1] and in assay [2] was above 7.00 throughout.

Consider `O=C(NCc1ccc(OC(F)(F)F)cc1)[C@H]1CN(c2nc3nc(C(F)(F)F)ncc3s2)CCN1S(=O)(=O)c1ccc(OC(F)(F)C(F)F)cc1` [Example 1004, (R)-1-[4-(1,1,2,2-tetrafluoro-ethoxy)-benzenesulfonyl]-4-(5-trifluoromethyl-thiazolo[4,5-d]pyrimidin-2-yl)-piperazine-2-carboxylic acid 4-trifluoromethoxy-benzylamide], for which the pIC50 in assay [1] and in assay [2] was above 7.00 in each case.

With `O=C(NCc1ccc(OC(F)F)cc1)[C@H]1CN(c2nc3nc(C(F)(F)F)ncc3s2)CCN1S(=O)(=O)c1ccc(OC(F)F)cc1` [Example 1005, (R)-1-(4-difluoromethoxy-benzenesulfonyl)-4-(5-trifluoromethyl-thiazolo[4,5-d]pyrimidin-2-yl)-piperazine-2-carboxylic acid 4-difluoromethoxy-benzylamide], the pIC50 in assay [1] and in assay [2] was above 7.00 in each case.

Consider `O=C(NCc1ccc(OC(F)(F)F)cc1)[C@H]1CN(c2nc3nnncc3s2)CCN1S(=O)(=O)c1ccc(C(F)(F)F)cc1` [Example 1006, (R)-4-thiazolo[4,5-d][1,2,3]triazin-6-yl-1-(4-trifluoromethyl-benzenesulfonyl)-piperazine-2-carboxylic acid 4-trifluoromethoxy-benzylamide], for which the pIC50 in assay [1] and in assay [2] was above 7.00 each time.

As for `CCOC(=O)c1ncc2sc(N3CCN(S(=O)(=O)c4ccc(OC(F)(F)F)cc4)[C@@H](C(=O)NCc4ccc(OC(F)(F)F)cc4)C3)nc2n1` [Example 1007, 2-[(R)-4-(4-trifluoromethoxy-benzenesulfonyl)-3-(4-trifluoromethoxy-benzylcarbamoyl)-piperazin-1-yl]-thiazolo[4,5-d]pyrimidine-5-carboxylic acid ethyl ester], the pIC50 in assay [1] and in assay [2] was above 7.00 throughout.

Regarding `O=C(NCc1ccc(OC(F)(F)F)cc1)[C@H]1CN(c2nc3nc(CO)ncc3s2)CCN1S(=O)(=O)c1ccc(OC(F)(F)F)cc1` [Example 1008, (R)-4-(5-hydroxymethyl-thiazolo[4,5-d]pyrimidin-2-yl)-1-(4-trifluoromethoxy-benzenesulfonyl)-piperazine-2-carboxylic acid 4-trifluoromethoxy-benzylamide], the pIC50 in assay [1] and in assay [2] was above 7.00 throughout.

Regarding `COc1nncc2sc(N3CCN(S(=O)(=O)c4ccc(OC(F)(F)F)cc4)[C@@H](C(=O)NCc4ccc(OC(F)(F)F)cc4)C3)nc12` [Example 1009, (R)-4-(4-methoxy-thiazolo[4,5-d]pyridazin-2-yl)-1-(4-trifluoromethoxy-benzenesulfonyl)-piperazine-2-carboxylic acid 4-trifluoromethoxy-benzylamide], the negative logarithm of the IC50 (pIC50) in assay [1] and in assay [2] was above 7.00 throughout.

Take `N#Cc1ncc2sc(N3CCN(S(=O)(=O)c4ccc(C(F)(F)F)cc4)[C@@H](C(=O)NCc4ccc(OC(F)(F)F)cc4)C3)nc2n1` [Example 1010, (R)-4-(5-cyano-thiazolo[4,5-d]pyrimidin-2-yl)-1-(4-trifluoromethyl-benzenesulfonyl)-piperazine-2-carboxylic acid 4-trifluoromethoxy-benzylamide]: the pIC50 in assay [1] and in assay [2] was above 7.00 throughout.

In the case of `N#Cc1ncc2sc(N3CCN(S(=O)(=O)c4ccc(C(F)(F)F)cc4)[C@@H](C(=O)NCc4ccc(OC(F)F)cc4)C3)nc2n1` [Example 1011, (R)-4-(5-cyano-thiazolo[4,5-d]pyrimidin-2-yl)-1-(4-trifluoromethyl-benzenesulfonyl)-piperazine-2-carboxylic acid 4-difluoromethoxy-benzylamide], the pIC50 in assay [1] and in assay [2] was above 7.00 in each case.

For the molecule `O=C(NCc1ccc(OC(F)(F)F)cc1)[C@H]1CN(c2nc3nc(CC4CC4)ncc3s2)CCN1S(=O)(=O)c1ccc(C(F)(F)F)cc1` [Example 1012, (R)-4-(5-cyclopropylmethyl-thiazolo[4,5-d]pyrimidin-2-yl)-1-(4-trifluoromethyl-benzenesulfonyl)-piperazine-2-carboxylic acid 4-trifluoromethoxy-benzylamide], the pIC50 in assay [1] and in assay [2] was above 7.00 in each case.

On to `NC(=O)c1ncc2sc(N3CCN(S(=O)(=O)c4ccc(C(F)(F)F)cc4)[C@@H](C(=O)NCc4ccc(OC(F)(F)F)cc4)C3)nc2n1` [Example 1013, 2-[(R)-3-(4-trifluoromethoxy-benzylcarbamoyl)-4-(4-trifluoromethyl-benzenesulfonyl)-piperazin-1-yl]-thiazolo[4,5-d]pyrimidine-5-carboxylic acid amide], for which the pIC50 in assay [1] and in assay [2] was above 7.00 throughout.

For `O=C(NCc1ccc(OC(F)F)cc1)[C@H]1CN(c2nc3nc(C4CC4)ncc3s2)CCN1S(=O)(=O)c1ccc(OC(F)F)cc1` [Example 1014, (R)-4-(5-cyclopropyl-thiazolo[4,5-d]pyrimidin-2-yl)-1-(4-difluoromethoxy-benzenesulfonyl)-piperazine-2-carboxylic acid 4-difluoromethoxy-benzylamide], the pIC50 in assay [1] and in assay [2] was above 7.00 in each case.

Turning to `O=C(NCc1ccc(OC(F)F)cc1)[C@H]1CN(c2nc3nc(C(F)(F)F)ncc3s2)CCN1S(=O)(=O)c1ccc(OC(F)(F)C(F)F)cc1` [Example 1015, (R)-1-[4-(1,1,2,2-tetrafluoro-ethoxy)-benzenesulfonyl]-4-(5-trifluoromethyl-thiazolo[4,5-d]pyrimidin-2-yl)-piperazine-2-carboxylic acid 4-difluoromethoxy-benzylamide], the pIC50 in assay [1] and in assay [2] was above 7.00 each time.
